# Data from US8575127B2, “Antithrombotic diadenosine tetraphosphates and related analogs” (GLSynthesis Inc., priority 2008, dated 2013).
# Tested on: ADP-induced human platelet aggregation
# Experiment: ADP-induced platelet aggregation in platelet-rich human plasma (optical aggregometry)
# Assay type: cell-based
# Settings: inhibition of 3 μM ADP-induced human platelet aggregation, average of 2 experiments
# Procedure: Platelet aggregation was initiated by adding ADP (3 μM) in the presence or absence of various concentrations of test compound to platelet-rich human plasma, and the aggregation response was recorded for six minutes in a Chrono-log® aggregometer running the Aggro/Link software (Chrono-log®, Havertown, Pa.).
row,IC50 [µM],Compound
1,0.089 ± 0.038,"CSc1nc(N)c2ncn(C3OC(COP(=O)(O)OP(=O)(O)OP(=O)(O)OP(=O)(O)OCC4OC(n5cnc6c(N)nc(SC)nc65)C(O)C4O)C(O)C3O)c2n1 (stereo not shown) [Compound 2, tetrasodium P^1,P^4-bis-(2-methylthio-5′-adenosine)tetraphosphate]"
2,3.52 ± 0.83,"CNc1ncnc2c1ncn2[C@@H]1O[C@H](COP(O)(=S)OP(=O)(O)C(Cl)P(=O)(O)OP(O)(=S)OC[C@H]2O[C@@H](n3cnc4c(NC)ncnc43)[C@H](O)[C@@H]2O)[C@@H](O)[C@H]1O (stereo partly shown) [Compound 8, P^1,P^4-bis(N^6-methyl-5′-adenosine)-P^1,P^4-dithio-P^2,P^3-monochloromethylenetetraphosphate]"
3,0.05 ± 0.037,"CSc1nc(N)c2ncn(C3OC(COP(O)(=S)OP(=O)(O)OP(=O)(O)OP(O)(=S)OCC4OC(n5cnc6c(N)nc(SC)nc65)C(O)C4O)C(O)C3O)c2n1 (stereo not shown) [Compound 10, P^1,P^4-bis-(2-methylthio-5′-adenosine)-P^1,P^4-dithiotetraphosphate]"
4,5.56 ± 1.7,"CCCNc1ncnc2c1ncn2C1OC(COP(O)(=S)OP(=O)(O)C(Cl)P(=O)(O)OP(O)(=S)OCC2OC(n3cnc4c(NCCC)ncnc43)C(O)C2O)C(O)C1O (stereo not shown) [Compound 12, P^1,P^4-bis-(N^6-propyl-5′-adenosine)-P^1,P^4-dithio-P^2,P^3-monochloromethylenetetraphosphate]"
5,0.013 ± 0.01,"CSc1nc(N)c2ncn(C3OC(COP(O)(=S)OP(=O)(O)C(Cl)P(=O)(O)OP(O)(=S)OCC4OC(n5cnc6c(N)nc(SC)nc65)C(O)C4O)C(O)C3O)c2n1 (stereo not shown) [Compound 17, P^1,P^4-bis-(2-methylthio-5′-adenosine)-P^1,P^4-dithio-P^2, P^3-monochloromethylenetetraphosphate]"
6,0.26,"CNc1nc(SC)nc2c1ncn2C1OC(COP(O)(=S)OP(=O)(O)C(Cl)P(=O)(O)OP(O)(=S)OCC2OC(n3cnc4c(NC)nc(SC)nc43)C(O)C2O)C(O)C1O (stereo not shown) [Compound 22, P^1,P^4-bis(N^6-methyl-2-methylthio-5′-adenosine)-P^1,P^4-dithio-P^2,P^3-monochloromethylenetetraphosphate]"
7,0.015 ± 0.01,"CCCSc1nc(N)c2ncn([C@@H]3O[C@H](COP(O)(=S)OP(=O)(O)C(Cl)P(=O)(O)OP(O)(=S)OC[C@H]4O[C@@H](n5cnc6c(N)nc(SCCC)nc65)[C@H](O)[C@@H]4O)[C@@H](O)[C@H]3O)c2n1 (stereo partly shown) [Compound 32, P^1,P^4-bis(2-propylthio-5′-adenosine)-P^1,P^4-dithio-P^2,P^3-monochloromethylenetetraphosphate]"
8,0.021 ± 0.006,"Nc1nc(I)nc2c1ncn2[C@@H]1O[C@H](COP(O)(=S)OP(=O)(O)C(Cl)P(=O)(O)OP(O)(=S)OC[C@H]2O[C@@H](n3cnc4c(N)nc(I)nc43)[C@H](O)[C@@H]2O)[C@@H](O)[C@H]1O (stereo partly shown) [Compound 40, P^1,P^1-bis-(2-iodo-5′-adenosine)-P^1,P^4-dithio-P^2, P^3-monochloromethylenetetraphosphate]"
9,0.098 ± 0.004,"Nc1nc(Cl)nc2c1ncn2C1OC(COP(O)(=S)OP(=O)(O)C(Cl)P(=O)(O)OP(O)(=S)OCC2OC(n3cnc4c(N)nc(Cl)nc43)C(O)C2O)C(O)C1O (stereo not shown) [Compound 44, P^1,P^4-bis(2-chloro-5′-adenosine)-P^1,P^4-dithio-P^2,P^3-monochloromethylenetetraphosphate]"

row,Compound,IC50 [µM]
1,"Bis-adenosine tetraphosphate [Ap4A, reference compound]",9.8 ± 2.8
